Tests used:
[1] = molecular target: GRP78 (Homo sapiens, UniProt P11021); experiment: Fluorescence polarization FITC-NRLLLTG peptide; details: peptide binding assay, 8-point dose responses
[2] = tested on: HCT116 cells; experiment: Annexin V / propidium iodide flow cytometry; format: cell-based
[3] = tested on: HCT116 cells; experiment: Unfolded protein response markers by immunoblot; format: cell-based; details: 16 hours, three concentrations

Chain of GRP78 (P11021 26-636): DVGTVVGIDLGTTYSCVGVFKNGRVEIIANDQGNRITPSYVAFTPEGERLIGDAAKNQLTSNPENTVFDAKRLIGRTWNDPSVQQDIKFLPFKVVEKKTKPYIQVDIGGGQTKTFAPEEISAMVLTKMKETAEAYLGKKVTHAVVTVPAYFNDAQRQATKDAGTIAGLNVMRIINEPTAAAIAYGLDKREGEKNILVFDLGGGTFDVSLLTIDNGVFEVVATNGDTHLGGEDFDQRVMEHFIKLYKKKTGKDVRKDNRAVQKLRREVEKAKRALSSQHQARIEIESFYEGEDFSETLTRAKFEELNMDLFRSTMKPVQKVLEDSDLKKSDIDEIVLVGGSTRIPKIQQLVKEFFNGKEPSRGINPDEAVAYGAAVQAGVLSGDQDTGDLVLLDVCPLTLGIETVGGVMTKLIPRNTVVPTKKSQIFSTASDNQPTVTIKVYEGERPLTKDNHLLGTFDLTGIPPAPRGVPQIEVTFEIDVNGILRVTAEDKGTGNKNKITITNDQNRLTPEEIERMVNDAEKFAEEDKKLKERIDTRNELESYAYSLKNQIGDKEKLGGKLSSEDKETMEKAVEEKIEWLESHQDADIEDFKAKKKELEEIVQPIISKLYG

| SMILES | GRP78 inhibition, SAR result in words [1] | also measured |
| --- | --- | --- |
| Oc1cc(Cl)ccc1Oc1ccc(Cl)cc1Cl [compound 6] | not tolerated |  |
| CCc1cc(Cc2cc(CC)cc(C(C)(C)C)c2O)c(O)c(C(C)(C)C)c1 [compound 8] | not tolerated |  |
| Oc1ccc(Cl)cc1Cc1cc(Cl)ccc1O [compound 5] | inactive |  |
| O=C(Nc1cc(Cl)cc(Cl)c1O)c1c(O)c(Cl)cc(Cl)c1Cl [compound 9] | not tolerated |  |
| Oc1c(Cl)cc(Cl)c(Cl)c1Cc1c(O)c(Cl)cc(Cl)c1Cl [hexachlorophene] |  | percentage of apoptotic cells (annexin V staining only) versus Taxol control ([2]; 10 μM, 24 hours): same percentage of apoptotic cells; percentage of apoptotic cells versus Taxol control ([2]; 25 μM, 24 hours): larger percentage of apoptotic cells than the Taxol control; mechanism of cell death ([2]; 5, 10, or 25 μM, dose and time course): apoptotic cell death in a dose (Figure 6A) and time (Figure 6B) dependent manner; time of peak early apoptosis (annexin V positive and PI negative) ([2]; time course): about 24 hours; time of peak late stage apoptosis (Annexin V and PI positive) ([2]; time course): 36 h; induction of UPR markers (XBP1s, ATF4, CHOP) [3]: dose dependent induction |
| Oc1ccccc1Cc1ccccc1O [compound 7] | inactive |  |
| Cc1cc(Cc2cc(C)cc(C(C)(C)C)c2O)c(O)c(C(C)(C)C)c1 [compound 10] | not tolerated |  |
| Oc1c(Cl)cc(Cl)c(Cl)c1Sc1c(O)c(Cl)cc(Cl)c1Cl [compound 2] | tolerated |  |

— article PMC6608569 (Bioorganic & medicinal chemistry letters, 2019)
